Source: ChEMBL document CHEMBL1137565, “Discovery of novel 8-azoniabicyclo[3.2.1]octane carbamates as muscarinic acetylcholine receptor antagonists” (Bioorg Med Chem Lett, 2007)

Experiments:
[1] = target: Muscarinic acetylcholine receptor M1 and M3 (Homo sapiens) (UniProt P20309+P11229); test: Selectivity for cloned muscarinic M3 receptor over cloned muscarinic M1 receptor
Mus musculus [2] = species: Mus musculus; test: Effect on metacholine-induced bronchoconstriction in mouse assessed as bronchoprotection at 5 ug after 5 hrs; assay type: functional
[3] = target: T1, Muscarinic acetylcholine receptor M2 (Homo sapiens, UniProt P08172); test: Antagonist activity at cloned muscarinic M2 receptor expressed in CHO cells by measuring calcium mobilization; assay type: functional, cell-based
T1 sequence (P08172 whole entry): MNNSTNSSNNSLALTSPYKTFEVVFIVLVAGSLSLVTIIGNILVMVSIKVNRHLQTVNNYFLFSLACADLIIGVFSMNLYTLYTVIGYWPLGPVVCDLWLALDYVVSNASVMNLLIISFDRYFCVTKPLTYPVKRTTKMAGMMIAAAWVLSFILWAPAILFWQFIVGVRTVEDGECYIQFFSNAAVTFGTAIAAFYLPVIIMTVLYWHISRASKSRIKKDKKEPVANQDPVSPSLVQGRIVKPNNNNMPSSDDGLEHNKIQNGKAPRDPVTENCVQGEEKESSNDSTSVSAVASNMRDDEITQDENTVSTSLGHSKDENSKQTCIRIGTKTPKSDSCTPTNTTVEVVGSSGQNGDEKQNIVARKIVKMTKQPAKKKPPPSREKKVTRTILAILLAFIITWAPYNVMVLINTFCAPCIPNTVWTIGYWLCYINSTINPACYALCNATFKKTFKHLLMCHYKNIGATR

Mus musculus [4] = species: Mus musculus; test: Effect on metacholine-induced bronchoconstriction in mouse assessed as bronchoprotection at 5 ug after 15 mins; assay type: functional
[5] = target: Muscarinic acetylcholine receptor M3 (Homo sapiens, UniProt P20309); test: Antagonist activity at cloned muscarinic M3 receptor expressed in CHO cells by measuring calcium mobilization; assay type: functional, cell-based
Chain of Muscarinic acetylcholine receptor M3 (P20309 whole entry): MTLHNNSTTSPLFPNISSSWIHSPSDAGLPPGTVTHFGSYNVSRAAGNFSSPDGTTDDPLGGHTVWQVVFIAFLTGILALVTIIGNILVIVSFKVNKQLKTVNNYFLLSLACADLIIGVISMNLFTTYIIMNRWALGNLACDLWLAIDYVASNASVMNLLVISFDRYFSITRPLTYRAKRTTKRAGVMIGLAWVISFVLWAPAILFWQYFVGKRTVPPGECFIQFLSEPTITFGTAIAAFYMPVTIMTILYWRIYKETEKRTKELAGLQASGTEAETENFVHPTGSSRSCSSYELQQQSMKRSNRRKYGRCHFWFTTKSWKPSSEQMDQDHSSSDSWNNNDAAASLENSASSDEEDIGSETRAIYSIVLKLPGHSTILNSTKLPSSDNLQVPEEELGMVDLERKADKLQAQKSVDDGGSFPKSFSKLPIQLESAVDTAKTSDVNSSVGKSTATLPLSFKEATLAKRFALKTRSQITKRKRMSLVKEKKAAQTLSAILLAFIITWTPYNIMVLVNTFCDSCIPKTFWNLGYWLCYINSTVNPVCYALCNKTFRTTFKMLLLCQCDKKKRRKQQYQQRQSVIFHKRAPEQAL

[6] = target: T2, Muscarinic acetylcholine receptor M1 (Homo sapiens, UniProt P11229); test: Antagonist activity at cloned muscarinic M1 receptor expressed in CHO cells by measuring calcium mobilization; assay type: functional, cell-based
T2 sequence (P11229 whole entry): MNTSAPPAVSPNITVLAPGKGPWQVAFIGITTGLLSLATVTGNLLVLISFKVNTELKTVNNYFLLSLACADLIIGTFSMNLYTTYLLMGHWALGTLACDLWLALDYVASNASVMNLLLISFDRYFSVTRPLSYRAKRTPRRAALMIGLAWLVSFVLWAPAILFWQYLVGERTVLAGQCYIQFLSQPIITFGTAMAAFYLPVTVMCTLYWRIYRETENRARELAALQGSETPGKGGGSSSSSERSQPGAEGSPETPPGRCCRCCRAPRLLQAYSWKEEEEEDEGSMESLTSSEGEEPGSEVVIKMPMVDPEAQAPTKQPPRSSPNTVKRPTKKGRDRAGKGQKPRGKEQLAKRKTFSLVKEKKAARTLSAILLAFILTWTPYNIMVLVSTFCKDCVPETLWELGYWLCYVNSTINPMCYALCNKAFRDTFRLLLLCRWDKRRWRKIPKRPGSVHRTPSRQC

Mus musculus [7] = species: Mus musculus; test: Effect on metacholine-induced bronchoconstriction in mouse assessed as bronchoprotection at 5 ug after 24 hrs; assay type: functional
[8] = target: Muscarinic acetylcholine receptors; M2 & M3 (Homo sapiens) (UniProt P20309+P08172); test: Selectivity for cloned muscarinic M3 receptor over cloned muscarinic M2 receptor

Chain of Muscarinic acetylcholine receptor M1 and M3 (Homo sapiens) (P20309 whole entry, looked up, one chain of several): as the sequence (P20309 whole entry) above

SMILES: C[N+]1(C)[C@@H]2CC[C@H]1C[C@H](OC(=O)N(Cc1ccccc1)c1ccsc1)C2.[Br-]
- Ratio IC50 [1]: 1
- Activity (Mus musculus [2]): 80%
- IC50 [3]: 10.9 nM
- Activity (Mus musculus [4]): 85%
- IC50 [5]: 2 nM
- IC50 [6]: 2.1 nM
- Activity (Mus musculus [7]): 25%
- Ratio IC50 [8]: 5.5
